The results in this text go back to ChEMBL document CHEMBL3853301, “The therapeutic voyage of pyrazole and its analogs: A review” (Eur J Med Chem, 2016).

In brackets after ≈: the same amount, converted by molar mass.

The IC50 is the midpoint of a concentration-inhibition curve. By EC50 is commonly meant the midpoint of the concentration-response curve. Read a low EC50 as an effect from little substance. What is called GI50 is the concentration at which growth is held to half of that of the control. What is called MIC is the smallest concentration in the dilution series that meets the test's criterion for growth inhibition. One may read the inhibition as the percentage by which the read-out fell short of the control.

Assay [1] concerns Escherichia coli. Briefly: Antibacterial activity against Escherichia coli NCIM 2685 by broth microdilution method. Type of assay: functional. (In general: Dilution methods test growth across graded concentrations, often in twofold steps.)
The test system of assay [2] is Bovine viral diarrhea virus 1. Briefly: Antiviral activity against Bovine viral diarrhea virus 1 infected in MDBK cells. The note with it: Bovine viral diarrhea virus isolates and strains. Format: functional, cell-based.
In assay [3] the test system is Bovine viral diarrhea virus 1. Briefly: Potency index, ratio of ribavirin EC50 to compound EC50 for Bovine viral diarrhea virus 1 infected in MDBK cells. Type of assay: functional.
The target of assay [4] is T1, Prostaglandin G/H synthase 1 (Ovis aries, UniProt P05979).
T1 sequence (P05979 whole entry): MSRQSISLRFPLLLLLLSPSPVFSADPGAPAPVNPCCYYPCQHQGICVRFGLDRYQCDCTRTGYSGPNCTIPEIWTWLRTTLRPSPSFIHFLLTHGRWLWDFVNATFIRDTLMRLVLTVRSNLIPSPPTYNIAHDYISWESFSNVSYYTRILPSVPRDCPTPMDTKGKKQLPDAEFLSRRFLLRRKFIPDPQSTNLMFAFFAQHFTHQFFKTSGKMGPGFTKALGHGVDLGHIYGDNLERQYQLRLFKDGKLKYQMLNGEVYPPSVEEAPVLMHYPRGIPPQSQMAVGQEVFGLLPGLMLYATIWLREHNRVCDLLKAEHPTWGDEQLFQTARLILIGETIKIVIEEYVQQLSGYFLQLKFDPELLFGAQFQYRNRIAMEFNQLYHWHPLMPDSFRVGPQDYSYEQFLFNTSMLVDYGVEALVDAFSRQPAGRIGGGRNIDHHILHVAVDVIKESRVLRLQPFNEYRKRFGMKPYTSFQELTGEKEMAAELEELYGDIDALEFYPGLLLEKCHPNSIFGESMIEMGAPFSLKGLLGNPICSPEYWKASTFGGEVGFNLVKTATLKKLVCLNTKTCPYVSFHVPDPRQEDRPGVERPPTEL
Kind of assay: Inhibition of recombinant ovine COX1 assessed as reduction in PGF2alpha production from PGH2 by enzyme immunoassay.

In assay [5] the target is T2, Prostaglandin G/H synthase 2 (Homo sapiens, UniProt P35354).
T2 sequence (P35354 whole entry): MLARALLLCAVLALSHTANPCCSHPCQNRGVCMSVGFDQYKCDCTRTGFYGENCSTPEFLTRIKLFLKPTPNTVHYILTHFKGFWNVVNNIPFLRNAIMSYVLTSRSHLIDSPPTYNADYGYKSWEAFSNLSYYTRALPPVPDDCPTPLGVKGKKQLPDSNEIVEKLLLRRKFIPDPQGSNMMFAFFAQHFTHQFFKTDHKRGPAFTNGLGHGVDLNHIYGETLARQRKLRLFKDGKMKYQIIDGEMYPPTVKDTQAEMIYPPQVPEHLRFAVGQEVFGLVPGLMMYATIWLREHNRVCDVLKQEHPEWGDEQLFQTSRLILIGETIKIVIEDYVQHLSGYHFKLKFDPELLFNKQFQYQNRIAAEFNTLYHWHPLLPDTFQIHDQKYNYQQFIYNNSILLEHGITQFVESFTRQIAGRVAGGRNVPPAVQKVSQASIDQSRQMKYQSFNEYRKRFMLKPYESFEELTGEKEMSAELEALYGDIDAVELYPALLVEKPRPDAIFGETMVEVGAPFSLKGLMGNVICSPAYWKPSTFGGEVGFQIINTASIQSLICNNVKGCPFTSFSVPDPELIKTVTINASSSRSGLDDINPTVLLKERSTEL
Briefly: Inhibition of recombinant human COX2 assessed as reduction in PGF2alpha production from PGH2 by enzyme immunoassay.

Assay [6] is described as follows: Selectivity index, ratio of IC50 for recombinant ovine COX1 to IC50 for recombinant human COX2.
Assay [7] in a line: Antiproliferative activity against human NCI-H226 cells after 72 hrs by MTT assay. Type of assay: functional. The note with it: NCI-H226, 72 h. Background: Formazan colour is commonly taken as a measure of viable cells.
A short description of assay [8]: Antiproliferative activity against human NPC-TW01 cells after 72 hrs by MTT assay. Type of assay: functional. Particulars: NPC-TW01, 72 h.
Assay [9] concerns Staphylococcus aureus. Briefly: Antibacterial activity against Staphylococcus aureus. Format: functional.
Another assay has as its system Bacillus cereus. Briefly: Antibacterial activity against Bacillus cereus. Type of assay: functional.
Assay [10] has as its system Bacillus subtilis. Kind of assay: Antibacterial activity against Bacillus subtilis by broth dilution method. Type of assay: functional.
A further assay relates to Aspergillus fumigatus. Briefly: Antifungal activity against Aspergillus fumigatus NCIM 535 by broth microdilution method. Format: functional.
A short description of assay [11]: Antifungal activity against Penicillium notatum NCIM 745 by broth microdilution method. Type of assay: functional. The note with it: Penicillium chrysogenum.
Assay [12] concerns Bacillus subtilis. Kind of assay: Antibacterial activity against Bacillus subtilis NCIM 2711 by broth microdilution method. Format: functional.
Assay [13] relates to Staphylococcus aureus. Briefly: Antibacterial activity against Staphylococcus aureus after 16 hrs by serial dilution method. Type of assay: functional.
Assay [14] relates to Bacillus subtilis. Briefly: Antibacterial activity against Bacillus subtilis after 16 hrs by serial dilution method. Type of assay: functional.
Assay [15] has as its system Escherichia coli. Kind of assay: Antibacterial activity against Escherichia coli after 16 hrs by serial dilution method. Type of assay: functional.
The subject of a further assay is Pseudomonas aeruginosa. Briefly: Antibacterial activity against Pseudomonas aeruginosa after 16 hrs by serial dilution method. Type of assay: functional.
Assay [16] can be described thus: Antidiabetic activity in albino mouse assessed as reduction in alloxan-induced plasma glucose level at 0.2 mmol/kg, po administered 3 days post alloxan challenge measured 1 to 3 hrs post dose by copper reduction based colorimetric assay relative to control. Format: functional, organism-based.
Assay [17] deals with Staphylococcus aureus. Kind of assay: Antibacterial activity against Staphylococcus aureus NCTC 7447 by serial dilution method. Format: functional.
Assay [18] relates to Staphylococcus aureus. Briefly: Antibacterial activity against Staphylococcus aureus NCTC 7447 by agar diffusion method. Format: functional. (Agar diffusion results depend on both activity and mobility in agar.)
Another assay deals with Rattus norvegicus. Briefly: Antihyperglycemic activity in STZ/nicotinamide-induced type2 diabetic Wistar rat model assessed as blood glucose level at 100 mg/kg, po measured for 14 days post dose. Type of assay: functional.
Assay [19] deals with Mycobacterium tuberculosis. Briefly: Antimycobacterial activity against Mycobacterium tuberculosis H37Rv. Format: functional.
For assay [20], the system named is Escherichia coli. Kind of assay: Antibacterial activity against Escherichia coli MTCC 443 after 24 hrs by broth dilution method. Type of assay: functional. The note with it: MTCC 443, 24 h.

`O=C1/C(=C\c2cn(-c3ccccc3)nc2-c2ccc(O)cc2)SC(=S)N1c1ccc(Cl)cc1`: it took 62.5 µg/mL (≈ 128 µM) to reach half-maximal inhibition in the assay on Escherichia coli [1] (IC50).
The compound `NC(=O)c1ncn([C@@H]2O[C@H](CO)[C@@H](O)[C@H]2O)n1` [RIBAVIRIN] displayed an EC50 in assay [2] of 1.3 µM.
Consider `Cc1ccc(-n2nc(C)c3c2CN(c2ccccc2)C3=O)cc1`, for which a half-maximal response in [2] (EC50) required 0.12 µM. In addition, the “Ratio EC50” value in assay [3] was determined as 10.
On to `CC(=O)NC1=NN(C(C)=O)C(c2cn(-c3ccccc3)nc2-c2ccc(O)cc2)S1` (centres undefined), for which the IC50 in assay [4] turned out to be 73 µM; in [5], 14 µM. In addition, in assay [6], the Ratio IC50 turned out to be 5.21.
For `CC(=O)NC1=NN(C(C)=O)C(c2cn(-c3ccccc3)nc2-c2ccc([N+](=O)[O-])cc2)S1` (centres undefined), the figures for the IC50 in assay [4] and in [5] were 70 µM and 20 µM, respectively. For the same compound, the Ratio IC50 in assay [6] is 3.5.
Consider `Nc1ccc(NC(=O)c2cc(-c3ccc(Cl)cc3)nn2-c2ccccc2)cc1`, for which the GI50 was found to be 18 µM in assay [7] and 30 µM in [8].
As to `O=C1C(c2cc(-c3ccc(Br)cc3)nn2-c2ccccc2)C(O)N(c2ccccc2)C(=S)N1c1ccccc1` (centres undefined), the MIC against Staphylococcus aureus [9] and in the assay on Bacillus cereus was 31.2 µg/mL (≈ 52.5 µM) each time.
In turn, `COc1ccc(-n2c(-c3cn(-c4ccccc4)nc3-c3ccccc3)nc3ccccc3c2=O)cc1` showed a minimal inhibitory concentration (MIC) in the assay with Bacillus subtilis [10] of 62.5 µg/mL (≈ 133 µM).
With `Nc1ccc2nc(Cl)c(-c3cc(-c4ccccc4)nn3C(=O)O)cc2c1`, the MIC against Aspergillus fumigatus was determined as 48 µg/mL (≈ 132 µM); in assay [11], 46 µg/mL (≈ 126 µM); against Bacillus subtilis [12] it was 44 µg/mL (≈ 121 µM).
Take `O=C(O)n1nc(-c2ccccc2)cc1-c1cc2ccccc2nc1Cl`: the MIC in [11] stood at 57 µg/mL (≈ 163 µM); against Bacillus subtilis [12] it was 54 µg/mL (≈ 154 µM); with Escherichia coli [1], 43 µg/mL (≈ 123 µM).
With `Sc1nncn1/N=C/c1cn[nH]c1-c1ccccc1`, the MIC against Staphylococcus aureus [13], against Bacillus subtilis [14], against Escherichia coli [15] and against Pseudomonas aeruginosa was 1.61 µg/mL (≈ 5.96 µM) in each case.
As for `Cc1c(Br)c(C(F)(F)F)nn1-c1ccc(S(=O)(=O)NC(=O)Nc2ccccc2)cc1`, in [16], the inhibition turned out to be 20%.
With `CC(=O)Nc1ccc(/N=N/c2c(N)nn3c(-c4ccccc4Cl)c(C#N)c(=O)[nH]c23)cc1`, it took 110 µg/mL (≈ 246 µM) to inhibit growth with Staphylococcus aureus [17] (MIC). Further, the “inhibition zone (IZ)” value in the assay with Staphylococcus aureus [18] was determined as 2.5 cm.
As to `COc1ccc(-n2cc(CC3Cc4cc(OC)c(OC)cc4C3=O)c(-c3cc4ccccc4oc3=O)n2)cc1` (centres undefined), the Activity in the assay with Rattus norvegicus was 138 mg/dL.
Take `Cc1ccc(-c2cc(C(=O)Nc3ccc(N)cc3)n(-c3ccc4ccccc4n3)n2)cc1`: the GI50 in assay [7] amounted to 18 µM; in assay [8], 30 µM.
For `O=C1c2ccccc2NC(c2cn(-c3ccccc3)nc2-c2ccccc2)N1c1ccc(Cl)cc1` (centres undefined), the MIC in assay [19] turned out to be 12.5 µg/mL (≈ 26.2 µM).
`O=C1CSC(N2N=C(c3ccccc3[N+](=O)[O-])CC2c2cn(-c3ccccc3)nc2-c2ccc(F)cc2)=N1` (centres undefined) displayed an MIC against Escherichia coli [20] of 12.5 µg/mL (≈ 23.7 µM).
Regarding `COc1cc2c(cc1OC)C(=O)C(Cc1cn(-c3ccc(C)cc3)nc1-c1cc3ccccc3oc1=O)C2` (centres undefined), the Activity in the assay on Rattus norvegicus was determined as 115 mg/dL.
